Legend:
[1] = system: uro-pathogenic E. coli strain (UPEC strain blaTEM-1); assay: MIC of ampicillin with or without 32 µg/mL TEM3.2 or tazobactam; assay type: cell-based, Escherichia coli; settings: Escherichia coli; no additive
Experimental: We also performed a tolerability study using a dose escalation method by administering the peptide at 2, 5, 10, 15, and 20 mg/kg via different parenteral routes: intravenous (IV), intraperitoneal (IP), and subcutaneous (SC) in female C57BL/6JAX mice, aged 8–10 weeks (Suppl Table 4). […] Vehicle alone (0.9% NaCl) was also administered (IV). After 24 h the animals were sacrificed and the bacterial load in the bladder, kidney, and ureter was quantified by determining the number of colony-forming units (CFU) per mL of tissue extract (Fig. 7E–G).
Determination of MIC values was performed using the broth microdilution method according to the EUCAST guideline, which was performed in 96-well polystyrene flat-bottom microtiter plates (BD Biosciences). Briefly, a single colony was inoculated into 5 mL Difco™ Mueller–Hinton Broth (BD Biosciences Ref 275730) and grown to the end-exponential growth phase in a shaking incubator at 37 °C. Cultures were subsequently diluted to a MacFarland (0.5 optical density) to reach 10^6 CFU/mL in fresh MHB medium. 50 µl of different concentrations of peptides ranging from 128 to 2 µg/mL were serially diluted to the sterile 96-well plate in MHB. 50 µL of the diluted bacteria in MHB were next pipetted into 96-well plates to reach the final volume of 100 µL. The bacteria grown with the maximum concentration of carrier and medium were considered positive and negative controls, respectively. The plates were statically incubated overnight at 37 °C to allow bacterial growth. OD was measured at 590 nm using a multipurpose ultraviolet–visible plate reader, and the absorbance of the bacterial growth was measured using an absorbance reader.

E. coli TEM-30 = assay type: cell-based, Escherichia coli
Experimental: (§1) Beta-lactamase clinical samples were collected from University Hospitals Leuven and tested for ESBL production using the disk diffusion method. The beta-lactamase reference isolates were purchased from International Health Management Associates (IHMA). Bacterial strains were cultivated in Mueller–Hinton Broth (MHB, Difco) at 37 °C. Whenever required, growth media were supplemented with appropriate antibiotics to the medium or plates (kanamycin 30 µg/mL, L-arabinose 0.5 mg/mL, and IPTG […]). Escherichia coli BL21 (ThermoFisher Scientific, Belgium) was used for cloning and plasmid amplification. For the selection of antibiotic resistant colonies, E. coli carrying plasmids was grown in LB agar plates supplemented with the relevant antibiotic. Bacterial CFU counting was done on blood agar plates (BD Biosciences, Belgium) or MHA agar plates. Species identification and antibiograms for all clinical isolates were performed using MALDI-Tof and VITEK® 2 automated system (BioMérieux, France).
(§2) Khodaparast et al Supplementary data
(§3) study. […] Abbreviations: S,
(§4) susceptible; I, intermediate; R, resistant.

NDM-5 = settings: ampicillin as substrate; cited from earlier work
VIM-1 = settings: ampicillin as substrate; cited from earlier work
Text: (§5) Abbreviations: S, susceptible; I, intermediate; R, resistant.

OXA-48 = settings: ampicillin as substrate; cited from earlier work
Text: as §5

TEM-1 [2] = settings: ampicillin as substrate; cited from earlier work
E. coli TEM-16 = assay: VITEK 2 AST antimicrobial susceptibility testing; assay type: cell-based, Escherichia coli
Experimental: as §1, §2, §3, §4

E. coli SHV1 (APHA) = assay: VITEK 2 AST antimicrobial susceptibility testing; assay type: cell-based, Escherichia coli
Experimental: as §1, §2, §3, §4

E. coli TEM-206 = assay: VITEK 2 AST antimicrobial susceptibility testing; assay type: cell-based, Escherichia coli; settings: E. coli TEM-206
Experimental: as §1, §2, §3, §4

E. coli NDM5b = assay: VITEK 2 AST antimicrobial susceptibility testing; assay type: cell-based, Escherichia coli
Experimental: as §1, §2, §3, §4

E. coli NDM5a = assay: VITEK 2 AST antimicrobial susceptibility testing; assay type: cell-based, Escherichia coli
Experimental: as §1, §2, §3, §4

E. coli TEM-104 = assay: VITEK 2 AST antimicrobial susceptibility testing; assay type: cell-based, Escherichia coli
Experimental: as §1, §2, §3, §4

E. coli TEM-148 = assay: VITEK 2 AST antimicrobial susceptibility testing; assay type: cell-based, Escherichia coli
Experimental: as §1, §2, §3, §4

TEM-1 [3] = biological target: TEM-1 (Escherichia coli, UniProt P62593); assay type: biochemical, E. coli; set-up: His-tag (N); TEV cleavage site (N); made in house; host or cells: E. coli BL21 (DE3); settings: static light scattering during temperature ramp, inhibitor titration
TEM-1 (Escherichia coli, UniProt P62593), sequence (P62593 24-286 limits assumed): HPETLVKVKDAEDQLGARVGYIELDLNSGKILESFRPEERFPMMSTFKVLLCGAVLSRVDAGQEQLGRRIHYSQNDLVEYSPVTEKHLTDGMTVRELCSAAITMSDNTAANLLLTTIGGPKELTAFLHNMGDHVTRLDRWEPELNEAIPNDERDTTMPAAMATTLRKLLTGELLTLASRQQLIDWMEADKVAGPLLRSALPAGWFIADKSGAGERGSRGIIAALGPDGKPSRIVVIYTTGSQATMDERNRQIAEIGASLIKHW
Text: Then, we performed a thermal denaturation whilst simultaneously monitoring the intrinsic fluorescence as a measure of the folding status of the molecule (Fig. 1D and Supplementary Fig. 2D) and the static light scattering as a measure of aggregation (Fig. 1E and Supplementary Fig. 2E).
D Heat denaturation of TEM-1 monitored by intrinsic fluorescence plotted as the BaryCentric Mean (BCM) of the fluorescence emission spectrum in the presence (red) and absence (blue) of tazobactam. […] E Temperature-dependent evolution of the Right-Angle Light Scattering (RALS) intensity measured simultaneously with the data in D to monitor protein aggregation. […] F Same data as in E, but showing a dose-titration of the beta-lactamase inhibitor tazobactam.

E. coli UZ_TEM104 = assay: FACS with pFTAA (aggregation) and propidium iodide (cell death); assay type: cell-based, Escherichia coli; settings: 4 h; penicillin G 400 μg/mL and/or TEM3.2 50 μg/mL
Experimental: Fig. 6 Uptake and inclusion body formation upon peptide treatment. Fluorescence-activated cell-sorting (FACS) (A) of E. coli strain UZ_TEM104 mixed 50–50% with the same strain after heat-inactivation. The cells were stained with pFTAA to monitor aggregation and propidium iodide (PI) to monitor cell permeabilization associated with cell death. 10^6 cells were analyzed for the plot. […] B Similar FACS analysis as in A, but with a sample of live bacteria only. […] Note: the horizontal and vertical lines correspond to the gatings used to obtain the quantifications shown in the corners of each image.
Treated bacteria were washed with PBS buffer two times. One microliter of PI (Invitrogen) was added to the bacteria and incubated for 5 min. The bacteria were counted by FACS to reach 40000 events. To correlate the activity of the peptides with cell death, the fluorescence intensity was measured in two channels using the Gallios^TM Flow Cytometer (Beckman Coulter, USA), PI: excitation 536 nm and emission 617 nm, FITC: excitation 490 nm and emission 525 nm. Heated bacteria at 90 °C for 10 min were used as PI-positive control.
The bacterial cultures were washed with PBS, and the number of bacteria was adjusted to 10^8–10^9 cells/mL. […] Then, cells were treated with LCO dyes (pFTAA; Amytacker^TM680 or Amytacker^TM545: final concentration of 0.5 µM; Ebba Biotech, Sweden) for at least 90 min. The absorption, emission, and excitation spectra for each dye were measured based on the standard Ebbabiotec advice (ebbabiotech.com).

E. coli strain UZ_TEM104 = assay: microbe, parasite or virus in culture; assay type: cell-based, Escherichia coli; settings: Escherichia coli, read-out: MIC penicillin

With CC1(C)S[C@@H]2[C@H](NC(=O)[C@H](N)c3ccccc3)C(=O)N2[C@H]1C(=O)O [Ampicillin] the MIC [1] was 1200 µg/mL, the Interoretation (E. coli TEM-30; E. coli TEM-30) was “R” and the Interpretation (E. coli TEM-30; VITEK 2 AST card) was “R”. For the same compound, the Kcat (NDM-5) was 1912 s⁻¹, the Km (NDM-5) was 118 µM and the Kcat (VIM-1) was 37 s⁻¹. The Km (VIM-1) was 917 µM, the Kcat (OXA-48) was 955 s⁻¹ and the Km (OXA-48) was 395 µM. For the same compound, the Kcat (TEM-1 [2]) was 1428 s⁻¹, the Km (TEM-1 [2]) was 50 µM and the Interoretation (E. coli TEM-16; E. coli TEM-16) was “R”. The Interpretation (E. coli TEM-16; VITEK 2 AST card) was “R”, the Interoretation (E. coli SHV1 (APHA); E. coli SHV154) was “R” and the Interpretation (E. coli SHV1 (APHA); VITEK 2 AST card) was “R”. For the same compound, the Interoretation (E. coli TEM-206) was “R”, the Interoretation (E. coli NDM5b; E. coli NDM5b) was “R” and the Interpretation (E. coli NDM5b; VITEK 2 AST card) was “R”. The Interoretation (E. coli NDM5a; E. coli NDM5a) was “R”, the Interpretation (E. coli NDM5a; VITEK 2 AST card) was “R” and the Interoretation (E. coli TEM-104; E. coli TEM-104) was “R”. For the same compound, the Interpretation (E. coli TEM-104; VITEK 2 AST card) was “R”, the Interoretation (E. coli TEM-148; E. coli TEM-148) was “R” and the Interpretation (E. coli TEM-148; VITEK 2 AST card) was “R”.

For NC(=O)[C@@H]1CC[C@@H]2CN1C(=O)N2OS(=O)(=O)O [avibactam], the “effect on aggregation of TEM-1, dose-response (in words)” value (TEM-1 [3]) was “reduce the aggregation of the enzyme in a dose-responsive manner”.

In the case of O=C(O)[C@H]1/C(=C/CO)O[C@@H]2CC(=O)N21 [clavulanate], the “effect on aggregation of TEM-1, dose-response (in words)” value (TEM-1 [3]) is reported as “reduce the aggregation of the enzyme in a dose-responsive manner”.

For CC1(C)S[C@@H]2[C@H](NC(=O)Cc3ccccc3)C(=O)N2[C@H]1C(=O)O [penicillin G, Benzylpenicillin sodium], the “shift in pFTAA and PI channels (in words)” value (E. coli UZ_TEM104) was “no major change in either channel” and the MIC (E. coli strain UZ_TEM104) was 1600 µg/mL.

From paper PMC10492782, “Exploiting the aggregation propensity of beta-lactamases to design inhibitors that induce enzyme misfolding” (Nature Communications, 2023)
